Measured values as given in patent US20180200257A1, “METHODS FOR THE TREATMENT OF INFLAMMATORY DISORDERS” (Galapagos NV, priority 2015, published 2018).

Test system: subjects with moderately to severely active RA who have an inadequate response to methotrexate (MTX)
Test: Study 2 (monotherapy) - Aspartate Aminotransferase (AST) levels
Format: in vivo, human
Source text: Randomized, double-blind, placebo-controlled, multicenter, phase IIb dose finding study of Compound 1 (dosed as a [Compound 1:HCl:3H2O]) administered for 24 weeks as monotherapy to subjects with moderately to severely active rheumatoid arthritis who have an inadequate response to methotrexate alone
Double-blind, placebo-controlled, monotherapy study in subjects with moderately to severely active RA who have an inadequate response to methotrexate (MTX) (oral or parenteral).
280 subjects randomized to one of 3 doses of Compound 1 (dosed as a [Compound 1:HCl:3H2O]) or to placebo, given once daily (q.d.).
Twelve weeks of treatment with Compound 1 (dosed as a [Compound 1:HCl:3H2O]) at 50 mg, 100 mg, or 200 mg q.d.; or placebo. At Week 12, all subjects on placebo and the subjects on the 50 mg dose who have not achieved 20% improvement in swollen joint count (SJC66) and tender joint count (TJC68) will be assigned to 100 mg q.d. in a blinded fashion and will continue treatment until Week 24. Subjects in the other groups will maintain their randomized treatment until Week 24.
AST levels determination is available at Quest Diagnostics, Clinical Trials, Quest House, 125-135 Staines Road, Hounslow, Middlesex, TW3 3JB, United Kingdom under Catalogue n#84450. For Study 3, the data are obtained at BARC Europe, 3B,Industrie Park, Zwijnaarde, B-9052 Ghent, Belgium.
AST catalyzes the transamination of aspartate and 2-oxoglutarate, forming L-glutamate and oxalacetate. The oxalacetate is reduced to L-malate by malate dehydrogenase, whilst NADH is converted to NAD+, measured spectrophotometrically. Guidelines for the AST value have been issued by the association for Clinical Biochemistry and Laboratory Medicine, 130-132 Tooley Street LONDON SE1 2TU, united Kingdom, wherein the AST value should be below 34 U/l in Female and below 45 U/L in male. As disclosed in the respective study protocols for Study 1 or 2, at week 12, depending on the outcome of their treatment, the subjects may be continued in their initial treatment course, or reassigned to another treatment group in a randomized blinded fashion until week 24. Therefore, the number of subjects (N) for the period of either 12 weeks, or 24 weeks is provided to reflect this redistribution at week 12.
Subjects in the other groups maintained their randomized treatment until Week 24.

[1] = 12 weeks results, 50 mg q.d., week 1
[2] = 12 weeks results, 50 mg q.d., week 2
[3] = 12 weeks results, 50 mg q.d., week 4
[4] = 12 weeks results, 50 mg q.d., week 8
[5] = 12 weeks results, 50 mg q.d., week 12
[6] = 12 weeks results, 100 mg q.d., week 1
[7] = 12 weeks results, 100 mg q.d., week 2
[8] = 12 weeks results, 100 mg q.d., week 4
[9] = 12 weeks results, 100 mg q.d., week 8
[10] = 12 weeks results, 100 mg q.d., week 12
[11] = 12 weeks results, 200 mg q.d., week 1
[12] = 12 weeks results, 200 mg q.d., week 2
[13] = 12 weeks results, 200 mg q.d., week 4
[14] = 12 weeks results, 200 mg q.d., week 8
[15] = 12 weeks results, 200 mg q.d., week 12
[16] = 24 weeks results, 50 mg q.d. non responders switching to 100 mg q.d. at week 12, week 1
[17] = 24 weeks results, 50 mg q.d. non responders switching to 100 mg q.d. at week 12, week 2
[18] = 24 weeks results, 50 mg q.d. non responders switching to 100 mg q.d. at week 12, week 4
[19] = 24 weeks results, 50 mg q.d. non responders switching to 100 mg q.d. at week 12, week 8
[20] = 24 weeks results, 50 mg q.d. non responders switching to 100 mg q.d. at week 12, week 12
[21] = 24 weeks results, 50 mg q.d. non responders switching to 100 mg q.d. at week 12, week 16
[22] = 24 weeks results, 50 mg q.d. non responders switching to 100 mg q.d. at week 12, week 20
[23] = 24 weeks results, 50 mg q.d. non responders switching to 100 mg q.d. at week 12, week 24
[24] = 24 weeks results, 50 mg q.d. responders, week 1
[25] = 24 weeks results, 50 mg q.d. responders, week 2
[26] = 24 weeks results, 50 mg q.d. responders, week 4
[27] = 24 weeks results, 50 mg q.d. responders, week 8
[28] = 24 weeks results, 50 mg q.d. responders, week 12
[29] = 24 weeks results, 50 mg q.d. responders, week 16
[30] = 24 weeks results, 50 mg q.d. responders, week 20
[31] = 24 weeks results, 50 mg q.d. responders, week 24
[32] = 24 weeks results, 100 mg q.d., week 1
[33] = 24 weeks results, 100 mg q.d., week 2
[34] = 24 weeks results, 100 mg q.d., week 4
[35] = 24 weeks results, 100 mg q.d., week 8
[36] = 24 weeks results, 100 mg q.d., week 12
[37] = 24 weeks results, 100 mg q.d., week 16
[38] = 24 weeks results, 100 mg q.d., week 20
[39] = 24 weeks results, 100 mg q.d., week 24
[40] = 24 weeks results, 200 mg q.d., week 1
[41] = 24 weeks results, 200 mg q.d., week 2
[42] = 24 weeks results, 200 mg q.d., week 4
[43] = 24 weeks results, 200 mg q.d., week 8
[44] = 24 weeks results, 200 mg q.d., week 12
[45] = 24 weeks results, 200 mg q.d., week 16
[46] = 24 weeks results, 200 mg q.d., week 20
[47] = 24 weeks results, 200 mg q.d., week 24
[48] = 24 weeks results, placebo switching to 100 mg q.d. at week 12, week 16
[49] = 24 weeks results, placebo switching to 100 mg q.d. at week 12, week 20
[50] = 24 weeks results, placebo switching to 100 mg q.d. at week 12, week 24

Structure (SMILES): O=C(Nc1nc2cccc(-c3ccc(CN4CCS(=O)(=O)CC4)cc3)n2n1)C1CC1 [Compound 1, cyclopropanecarboxylic acid {5-[4-(1,1-dioxo-thiomorpholin-4-ylmethyl)-phenyl]-[1,2,4]triazolo[1,5-a]pyridin-2-yl}-amide]
- Study 2 - AST Mean CFB [1]: −1.8 IU/L
- Study 2 - AST Mean percentage CFB [1]: 0.54%
- Study 2 - AST Mean CFB [2]: −2.0 IU/L
- Study 2 - AST Mean percentage CFB [2]: 1.54%
- Study 2 - AST Mean CFB [3]: −1.7 IU/L
- Study 2 - AST Mean percentage CFB [3]: −0.21%
- Study 2 - AST Mean CFB [4]: −2.5 IU/L
- Study 2 - AST Mean percentage CFB [4]: −0.42%
- Study 2 - AST Mean CFB [5]: −0.2 IU/L
- Study 2 - AST Mean percentage CFB [5]: 2.69%
- Study 2 - AST Mean CFB [6]: 0.4 IU/L
- Study 2 - AST Mean percentage CFB [6]: 8.99%
- Study 2 - AST Mean CFB [7]: 1.3 IU/L
- Study 2 - AST Mean percentage CFB [7]: 9.02%
- Study 2 - AST Mean CFB [8]: 1.3 IU/L
- Study 2 - AST Mean percentage CFB [8]: 15.05%
- Study 2 - AST Mean CFB [9]: 1.9 IU/L
- Study 2 - AST Mean percentage CFB [9]: 18.05%
- Study 2 - AST Mean CFB [10]: 1.9 IU/L
- Study 2 - AST Mean percentage CFB [10]: 16.02%
- Study 2 - AST Mean CFB [11]: 0.1 IU/L
- Study 2 - AST Mean percentage CFB [11]: 7.59%
- Study 2 - AST Mean CFB [12]: 0.9 IU/L
- Study 2 - AST Mean percentage CFB [12]: 11.22%
- Study 2 - AST Mean CFB [13]: 0.8 IU/L
- Study 2 - AST Mean percentage CFB [13]: 13.13%
- Study 2 - AST Mean CFB [14]: 1.4 IU/L
- Study 2 - AST Mean percentage CFB [14]: 16.67%
- Study 2 - AST Mean CFB [15]: 1.1 IU/L
- Study 2 - AST Mean percentage CFB [15]: 15.21%
- Study 2 - AST Mean CFB [16]: −0.4 IU/L
- Study 2 - AST Mean percentage CFB [16]: −1.15%
- Study 2 - AST Mean CFB [17]: 0.3 IU/L
- Study 2 - AST Mean percentage CFB [17]: 2.57%
- Study 2 - AST Mean CFB [18]: 0.3 IU/L
- Study 2 - AST Mean percentage CFB [18]: 2.84%
- Study 2 - AST Mean CFB [19]: 0.0 IU/L
- Study 2 - AST Mean percentage CFB [19]: 1.89%
- Study 2 - AST Mean CFB [20]: 0.8 IU/L
- Study 2 - AST Mean percentage CFB [20]: 7.36%
- Study 2 - AST Mean CFB [21]: 0.8 IU/L
- Study 2 - AST Mean percentage CFB [21]: 5.82%
- Study 2 - AST Mean CFB [22]: 1.8 IU/L
- Study 2 - AST Mean percentage CFB [22]: 13.66%
- Study 2 - AST Mean CFB [23]: 2.6 IU/L
- Study 2 - AST Mean percentage CFB [23]: 17.42%
- Study 2 - AST Mean CFB [24]: −2.1 IU/L
- Study 2 - AST Mean percentage CFB [24]: 0.98%
- Study 2 - AST Mean CFB [25]: −2.6 IU/L
- Study 2 - AST Mean percentage CFB [25]: 1.26%
- Study 2 - AST Mean CFB [26]: −2.3 IU/L
- Study 2 - AST Mean percentage CFB [26]: −1.03%
- Study 2 - AST Mean CFB [27]: −3.2 IU/L
- Study 2 - AST Mean percentage CFB [27]: −1.06%
- Study 2 - AST Mean CFB [28]: −0.5 IU/L
- Study 2 - AST Mean percentage CFB [28]: 1.37%
- Study 2 - AST Mean CFB [29]: 0.5 IU/L
- Study 2 - AST Mean percentage CFB [29]: 8.81%
- Study 2 - AST Mean CFB [30]: 0.5 IU/L
- Study 2 - AST Mean percentage CFB [30]: 7.58%
- Study 2 - AST Mean CFB [31]: −0.5 IU/L
- Study 2 - AST Mean percentage CFB [31]: 5.14%
- Study 2 - AST Mean CFB [32]: 0.4 IU/L
- Study 2 - AST Mean percentage CFB [32]: 8.99%
- Study 2 - AST Mean CFB [33]: 1.3 IU/L
- Study 2 - AST Mean percentage CFB [33]: 9.02%
- Study 2 - AST Mean CFB [34]: 1.3 IU/L
- Study 2 - AST Mean percentage CFB [34]: 15.05%
- Study 2 - AST Mean CFB [35]: 1.9 IU/L
- Study 2 - AST Mean percentage CFB [35]: 18.05%
- Study 2 - AST Mean CFB [36]: 1.9 IU/L
- Study 2 - AST Mean percentage CFB [36]: 16.02%
- Study 2 - AST Mean CFB [37]: 5.4 IU/L
- Study 2 - AST Mean percentage CFB [37]: 23.15%
- Study 2 - AST Mean CFB [38]: 2.4 IU/L
- Study 2 - AST Mean percentage CFB [38]: 23.16%
- Study 2 - AST Mean CFB [39]: 1.5 IU/L
- Study 2 - AST Mean percentage CFB [39]: 15.75%
- Study 2 - AST Mean CFB [40]: 0.1 IU/L
- Study 2 - AST Mean percentage CFB [40]: 7.59%
- Study 2 - AST Mean CFB [41]: 0.9 IU/L
- Study 2 - AST Mean percentage CFB [41]: 11.22%
- Study 2 - AST Mean CFB [42]: 0.8 IU/L
- Study 2 - AST Mean percentage CFB [42]: 13.13%
- Study 2 - AST Mean CFB [43]: 1.4 IU/L
- Study 2 - AST Mean percentage CFB [43]: 16.67%
- Study 2 - AST Mean CFB [44]: 1.1 IU/L
- Study 2 - AST Mean percentage CFB [44]: 15.21%
- Study 2 - AST Mean CFB [45]: 2.2 IU/L
- Study 2 - AST Mean percentage CFB [45]: 21.14%
- Study 2 - AST Mean CFB [46]: 1.7 IU/L
- Study 2 - AST Mean percentage CFB [46]: 17.43%
- Study 2 - AST Mean CFB [47]: 1.4 IU/L
- Study 2 - AST Mean percentage CFB [47]: 17.74%
- Study 2 - AST Mean CFB [48]: 0.9 IU/L
- Study 2 - AST Mean percentage CFB [48]: 8.60%
- Study 2 - AST Mean CFB [49]: 2.2 IU/L
- Study 2 - AST Mean percentage CFB [49]: 16.10%
- Study 2 - AST Mean CFB [50]: 2.1 IU/L
- Study 2 - AST Mean percentage CFB [50]: 13.64%
